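Following 48 hours of exposure in 96-well plates, responses at five concentrations were used to interpolate endpoints linearly. Abbreviation: GI50, concentration required for 50% inhibition of growth. Definition used: TGI = concentration required for complete inhibition of growth.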
Experiments:
Assay in all cases: NCI anticancer screen, dose series, 48 h
[1] = test system: CCRF-CEM leukemia
[2] = test system: EKVX NSCLC
[3] = test system: IGROV1 ovarian
[4] = test system: M14 melanoma
[5] = test system: MCF7 breast
[6] = test system: MDA-MB-435
[7] = test system: SF-295 CNS
[8] = test system: TK-10 renal
[9] = test system: U251 CNS
[10] = test system: UO-31 renal

| SMILES | TGI [1] [µM] | TGI [2] [µM] | TGI [3] [µM] | TGI [4] [µM] | TGI [5] [µM] | TGI [6] [µM] | TGI [7] [µM] | TGI [8] [µM] | TGI [9] [µM] | TGI [10] [µM] | GI50 [2] [µM] | GI50 [3] [µM] | GI50 [8] [µM] | GI50 [9] [µM] | GI50 [10] [µM] |
| --- | --- | --- | --- | --- | --- | --- | --- | --- | --- | --- | --- | --- | --- | --- | --- |
| CCCSc1cc(Cl)c(C)cc1S(=O)(=O)n1ccnc1OCCCN(C)C | > 100 | > 100 | > 100 | > 100 | > 100 | > 100 | > 100 | > 100 | > 100 | > 100 |  |  |  |  |  |
| O=C(CCc1cccc(O)c1)NCCc1cccc(O)c1 | > 100 | > 100 | > 100 | > 100 | > 100 | > 100 | > 100 | > 100 | > 100 | > 100 |  |  |  |  |  |
| C=CCNC1=C2C[C@@H](C)C[C@@H](OC)C(OC(=O)CCCN(C)C)[C@H](C)/C=C(\C)[C@@H](OC(N)=O)[C@H](OC)/C=C\C=C(/C)C(=O)NC(=CC1=O)C2=O (stereo not given in full) | 31.3 | 26.1 | 21.7 | 20.7 | 12.1 | 26 | 20.5 | 25.1 | 26.6 | 26.6 |  |  |  |  |  |
| COCn1c(C)c(C)c2c(=O)oc(=O)[nH]c21 | > 100 | > 100 | > 100 | > 100 | > 100 | > 100 | > 100 | > 100 | > 100 | > 100 |  |  |  |  |  |
| Cc1c2c(n3c(nc4ccccc43)c1C#N)SCC2 | > 10 | > 10 | > 10 | > 10 | > 10 | > 10 | > 10 | > 10 | > 10 | > 10 |  |  |  |  |  |
| COc1c2occc2c(OC)c2c(=O)c(S(=O)(=O)NC(=O)Nc3ccc(Cl)cc3)coc12 | > 10 | > 10 | > 10 | > 10 | > 10 | > 10 | > 10 | > 10 | > 10 | > 10 |  |  |  |  |  |
| COc1cc2c(cc1OC)C1CN3C(=O)CCC3C(O)C1c1cc(OC)c(OC)cc1-2 (stereo not given) | > 100 | > 100 | > 100 | > 100 | > 100 | > 100 | > 100 | > 100 | > 100 | > 100 |  |  |  |  |  |
| Cc1c(CNc2ccc(Cl)c(C(=O)NC(CC(=O)O)C(=O)O)c2)ccc2nc(N)nc(N)c12 (stereo not given) | > 1000 | > 1000 | 232 | > 1000 | > 1000 | > 1000 | > 1000 | > 1000 | > 1000 | > 1000 | 284 | 50.4 | 363 | 75.8 | 1.86 |
| COC(=O)c1c(OC(C)=O)ccc2c1c1c(OC(C)=O)c3ccccc3c(OC(C)=O)c1n2Cc1cc(OC)cc(OC)c1 | > 100 | 26.7 | > 100 | > 100 | > 100 | 78.3 | > 100 | > 100 | > 100 | > 100 |  |  |  |  |  |

Reference: PubChem BioAssay (NCI)
